{"source": "ChEMBL document CHEMBL3879902", "about": "“Compounds and methods for kinase modulation, and indications thereof” (2012)", "key": {"[1]": {"experiment": "Aqueous solubility of the compound in hepes buffer at pH 7.4", "format": "physicochemical"}, "[2]": {"experiment": "Aqueous solubility of the compound in simulated gastric fluid at pH 1.5", "format": "ADME", "settings": "simulated gi fluid"}, "[3]": {"experiment": "Aqueous solubility of the compound in simulated intestinal fluid at pH 6.8", "format": "ADME", "settings": "simulated gi fluid"}, "[4]": {"experiment": "Aqueous solubility of the compound in simulated intestinal fluid at pH 4.5", "format": "ADME", "settings": "simulated gi fluid"}}, "data": [{"molecule": "COc1ncc(-c2cnc3[nH]cc(C(=O)c4c(F)ccc(NS(=O)(=O)c5c(F)cccc5F)c4F)c3c2)cn1", "values": [{"measurement": "solubility", "setting": "[1]", "value": "Soluble"}, {"measurement": "solubility", "setting": "[2]", "value": "Insoluble"}, {"measurement": "solubility", "setting": "[3]", "value": "Insoluble"}, {"measurement": "solubility", "setting": "[4]", "value": "Insoluble"}]}, {"molecule": "COc1cnc2[nH]cc(C(=O)c3c(F)ccc(NS(=O)(=O)c4cc(F)ccc4F)c3F)c2c1", "values": [{"measurement": "solubility", "setting": "[1]", "value": "Soluble"}, {"measurement": "solubility", "setting": "[2]", "value": "Insoluble"}, {"measurement": "solubility", "setting": "[3]", "value": "Soluble"}, {"measurement": "solubility", "setting": "[4]", "value": "Insoluble"}]}, {"molecule": "N#Cc1cnc2[nH]cc(C(=O)c3c(F)ccc(NS(=O)(=O)c4ccccc4)c3F)c2c1", "values": [{"measurement": "solubility", "setting": "[1]", "value": "Soluble"}, {"measurement": "solubility", "setting": "[2]", "value": "Insoluble"}, {"measurement": "solubility", "setting": "[3]", "value": "Soluble"}, {"measurement": "solubility", "setting": "[4]", "value": "Insoluble"}]}]}
